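Compound exposure: 48 hours, 5 concentrations, 96-well plates. Abbreviation: GI50, concentration required for 50% inhibition of growth. The concentration for full growth arrest is given as TGI.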
How the values were obtained:
Test in all cases: inhibition of tumour cell growth, NCI panel, 48 h
RXF 393 renal = tested on: RXF 393 renal
HOP-62 NSCLC = tested on: HOP-62 NSCLC
UACC-257 melanoma = tested on: UACC-257 melanoma
A498 renal = tested on: A498 renal
IGROV1 ovarian = tested on: IGROV1 ovarian
NCI-H522 lung = tested on: NCI-H522 lung
UACC-62 melanoma = tested on: UACC-62 melanoma
OVCAR-3 ovarian = tested on: OVCAR-3 ovarian
MALME-3M melanoma = tested on: MALME-3M melanoma
NCI/ADR-RES ovarian = tested on: NCI/ADR-RES ovarian
EKVX NSCLC = tested on: EKVX NSCLC
ACHN renal = tested on: ACHN renal
RPMI-8226 leukemia = tested on: RPMI-8226 leukemia
MDA-MB-231 breast = tested on: MDA-MB-231 breast
SF-539 CNS = tested on: SF-539 CNS
MCF7 breast = tested on: MCF7 breast
SNB-75 CNS = tested on: SNB-75 CNS
DU-145 prostate = tested on: DU-145 prostate
CCRF-CEM leukemia = tested on: CCRF-CEM leukemia
SR leukemia = tested on: SR leukemia
COLO 205 colon = tested on: COLO 205 colon
SK-MEL-2 melanoma = tested on: SK-MEL-2 melanoma
MOLT-4 leukemia = tested on: MOLT-4 leukemia
OVCAR-8 ovarian = tested on: OVCAR-8 ovarian
MDA-MB-435 = tested on: MDA-MB-435
SK-MEL-28 melanoma = tested on: SK-MEL-28 melanoma
SK-MEL-5 melanoma = tested on: SK-MEL-5 melanoma
K-562 leukemia = tested on: K-562 leukemia
PC-3 prostate = tested on: PC-3 prostate
HCT-15 colon = tested on: HCT-15 colon
CAKI-1 renal = tested on: CAKI-1 renal
U251 CNS = tested on: U251 CNS
T-47D breast = tested on: T-47D breast
SNB-19 CNS = tested on: SNB-19 CNS
HS 578T breast = tested on: HS 578T breast
HL-60(TB) leukemia = tested on: HL-60(TB) leukemia
TK-10 renal = tested on: TK-10 renal
HOP-92 NSCLC = tested on: HOP-92 NSCLC
SF-295 CNS = tested on: SF-295 CNS
NCI-H226 lung = tested on: NCI-H226 lung
SK-OV-3 ovarian = tested on: SK-OV-3 ovarian
HCC-2998 colon = tested on: HCC-2998 colon
A549 NSCLC = tested on: A549 NSCLC
SN12C renal = tested on: SN12C renal
SF-268 CNS = tested on: SF-268 CNS
BT-549 breast = tested on: BT-549 breast
NCI-H460 lung = tested on: NCI-H460 lung
KM12 colon = tested on: KM12 colon
SW-620 colon = tested on: SW-620 colon
LOX IMVI melanoma = tested on: LOX IMVI melanoma
OVCAR-4 ovarian = tested on: OVCAR-4 ovarian
OVCAR-5 ovarian = tested on: OVCAR-5 ovarian

COc1cccc(CNCCN2C(=O)c3ccc4c5c(ccc(c35)C2=O)C(=O)N(CCNCc2cccc(OC)c2)C4=O)c1
GI50 (RXF 393 renal): 2160 nM | TGI (RXF 393 renal): 7.58 µM | GI50 (HOP-62 NSCLC): 15 µM | TGI (HOP-62 NSCLC): 30.8 µM | GI50 (UACC-257 melanoma): 2090 nM | TGI (UACC-257 melanoma): 3.82 µM | GI50 (A498 renal): 14.8 µM | TGI (A498 renal): 28.9 µM | GI50 (IGROV1 ovarian): 2360 nM | TGI (IGROV1 ovarian): 6.34 µM | GI50 (NCI-H522 lung): 1810 nM | TGI (NCI-H522 lung): 3.46 µM | GI50 (UACC-62 melanoma): 1900 nM | TGI (UACC-62 melanoma): 4 µM | GI50 (OVCAR-3 ovarian): 2250 nM | TGI (OVCAR-3 ovarian): 5.93 µM | GI50 (MALME-3M melanoma): 1800 nM | TGI (MALME-3M melanoma): 3.76 µM | GI50 (NCI/ADR-RES ovarian): 2990 nM | TGI (NCI/ADR-RES ovarian): > 100 µM | GI50 (EKVX NSCLC): 15.7 µM | TGI (EKVX NSCLC): 35.4 µM | GI50 (ACHN renal): 6.28 µM | TGI (ACHN renal): 27.5 µM | GI50 (RPMI-8226 leukemia): 2840 nM | TGI (RPMI-8226 leukemia): 7.45 µM | GI50 (MDA-MB-231 breast): 2390 nM | TGI (MDA-MB-231 breast): 6.61 µM | GI50 (SF-539 CNS): 1790 nM | TGI (SF-539 CNS): 3.4 µM | GI50 (MCF7 breast): 1810 nM | TGI (MCF7 breast): 4.39 µM | GI50 (SNB-75 CNS): 11.2 µM | TGI (SNB-75 CNS): 28 µM | GI50 (DU-145 prostate): 3.94 µM | TGI (DU-145 prostate): 14.9 µM | GI50 (CCRF-CEM leukemia): 3.46 µM | TGI (CCRF-CEM leukemia): 13.5 µM | GI50 (SR leukemia): 332 nM | TGI (SR leukemia): 2570 nM | GI50 (COLO 205 colon): 1530 nM | TGI (COLO 205 colon): 2950 nM | GI50 (SK-MEL-2 melanoma): 1890 nM | TGI (SK-MEL-2 melanoma): 3.85 µM | GI50 (MOLT-4 leukemia): 14.7 µM | TGI (MOLT-4 leukemia): 47.9 µM | GI50 (OVCAR-8 ovarian): 2150 nM | TGI (OVCAR-8 ovarian): 4.85 µM | GI50 (MDA-MB-435): 1840 nM | TGI (MDA-MB-435): 3.48 µM | GI50 (SK-MEL-28 melanoma): 2220 nM | TGI (SK-MEL-28 melanoma): 5.2 µM | GI50 (SK-MEL-5 melanoma): 1520 nM | TGI (SK-MEL-5 melanoma): 2860 nM | GI50 (K-562 leukemia): 3.03 µM | TGI (K-562 leukemia): 8.52 µM | GI50 (PC-3 prostate): 3.87 µM | TGI (PC-3 prostate): 21.6 µM | GI50 (HCT-15 colon): 2100 nM | TGI (HCT-15 colon): 4.82 µM | GI50 (CAKI-1 renal): 2610 nM | TGI (CAKI-1 renal): 8.27 µM | GI50 (U251 CNS): 2420 nM | TGI (U251 CNS): 5.16 µM | GI50 (T-47D breast): 2050 nM | TGI (T-47D breast): 5.3 µM | GI50 (SNB-19 CNS): 2880 nM | TGI (SNB-19 CNS): 10.4 µM | GI50 (HS 578T breast): 19 µM | TGI (HS 578T breast): 52.8 µM | GI50 (HL-60(TB) leukemia): 2560 nM | TGI (HL-60(TB) leukemia): 4.99 µM | GI50 (TK-10 renal): 1850 nM | TGI (TK-10 renal): 4.31 µM | GI50 (HOP-92 NSCLC): 18.9 µM | TGI (HOP-92 NSCLC): 41.2 µM | GI50 (SF-295 CNS): 1820 nM | TGI (SF-295 CNS): 3.88 µM | GI50 (NCI-H226 lung): 34 µM | TGI (NCI-H226 lung): > 100 µM | GI50 (SK-OV-3 ovarian): 19.1 µM | TGI (SK-OV-3 ovarian): 35.5 µM | GI50 (HCC-2998 colon): 5.21 µM | TGI (HCC-2998 colon): 19.1 µM | GI50 (A549 NSCLC): 2490 nM | TGI (A549 NSCLC): 5.83 µM | GI50 (SN12C renal): 1670 nM | TGI (SN12C renal): 3.24 µM | GI50 (SF-268 CNS): 4.09 µM | TGI (SF-268 CNS): 27 µM | GI50 (BT-549 breast): 2430 nM | TGI (BT-549 breast): 6.12 µM | GI50 (NCI-H460 lung): 1960 nM | TGI (NCI-H460 lung): 4.33 µM | GI50 (KM12 colon): 1750 nM | TGI (KM12 colon): 3.93 µM | GI50 (SW-620 colon): 2150 nM | TGI (SW-620 colon): 5.32 µM | GI50 (LOX IMVI melanoma): 1790 nM | TGI (LOX IMVI melanoma): 3.53 µM | GI50 (OVCAR-4 ovarian): 1400 nM | TGI (OVCAR-4 ovarian): 2710 nM | GI50 (OVCAR-5 ovarian): 21.1 µM | TGI (OVCAR-5 ovarian): 49.6 µM

Reference: PubChem BioAssay (NCI)
